The record followed here is patent US9783511B2, “Carbamate benzoxazine propionic acids and acid derivatives for modulation of RORgamma activity and the treatment of disease” (Merck Sharp & Dohme Corp., priority 2013, dated 2017).

In the test the target is human RORgammaT-Ligand Binding Domain (LBD) (Homo sapiens (Human), UniProt P51449). The test can be described thus: RORγ-Ligand Binding Domain TR-FRET Assay (co-activator peptide SRC1_2 recruitment). It is filed as biochemical. The settings on record: HIS-tagged RORγ-LBD 3 nM, biotinylated SRC1 LXXLL peptide 100 nM, incubated overnight at 4° C., 665 nm/615 nm ratio. An excerpt:
Activation of RORgammaT activity can be measured using, e.g., a biochemical TR-FRET assay. In such an assay, interaction of cofactor-derived peptides with human RORgammaT-Ligand Binding Domain (LBD) can be measured.
To identify novel antagonists of RORgammaT, an assay was developed which employs the interaction of RORgammaT with its co-activator peptide SRC1_2. […] The RORγ-Ligand Binding Domain TR-FRET Assay was run according to the following protocol.
HIS-tagged RORγ-LBD protein was recombinantly expressed in Escherichia coli. The RORγ-LBD protein was purified by Ni^2+-affinity resin. Purified protein was then diluted in assay buffer (50 mM Tris pH 7.0, 50 mM KCl, 1 mM EDTA, 0.1 mM DTT, 100 μg/mL bovine serum albumin, delipidated) to obtain a RORγ-LBD final concentration of 3 nM.
Compounds to be tested were injected to the 384-well assay plate using Acoustic Droplet Ejection technology by Echo 550 liquid handler (Labcyte, CA).
On the technique in general: TR-FRET usually uses a lanthanide donor and a delayed reading to cut background.

Chain of human RORgammaT-Ligand Binding Domain (LBD) (P51449 269-508): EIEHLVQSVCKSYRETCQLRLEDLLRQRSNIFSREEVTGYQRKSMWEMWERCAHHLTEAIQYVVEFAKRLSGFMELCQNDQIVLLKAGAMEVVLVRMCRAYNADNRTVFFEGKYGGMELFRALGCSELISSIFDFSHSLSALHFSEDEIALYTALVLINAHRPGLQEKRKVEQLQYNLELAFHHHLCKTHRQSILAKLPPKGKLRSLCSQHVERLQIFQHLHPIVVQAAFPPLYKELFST

Take `CC[C@H](C[C@H]1CN(S(=O)(=O)c2cccc(C3CC3)c2)c2cc(NC(=O)OC(C)(C)C(F)(F)F)ccc2O1)C(=O)O` (single isomer, unassigned) [Example 10D, (R or S)-2-(((S)-4-((3-cyclopropylphenyl)sulfonyl)-6-((((1,1,1-trifluoro-2-methylpropan-2-yl)oxy)carbonyl)amino)-3,4-dihydro-2H-benzo[b][1,4]oxazin-2-yl)methyl)butanoic acid]: the IC50 came out at 12.8 nM.

Regarding `CC[C@@H](C[C@H]1CN(S(=O)(=O)c2cccc(C3CC3)c2)c2cc(NC(=O)OC(C)(C)C(F)(F)F)ccc2O1)C(=O)O` (single isomer, unassigned) [Example 10F, (R or S)-2-(((S)-4-((3-cyclopropylphenyl)sulfonyl)-6-((((1,1,1-trifluoro-2-methylpropan-2-yl)oxy)carbonyl)amino)-3,4-dihydro-2H-benzo[b][1,4]oxazin-2-yl)methyl)butanoic acid], the IC50 stood at 13.3 nM.

Turning to `CC[C@H](C[C@H]1CN(S(=O)(=O)c2cn(CC)nc2OCCO)c2cc(NC(=O)OC(C)(C)C(F)(F)F)ccc2O1)C(=O)O` (single isomer, unassigned) [Example 10L, (R or S)-2-(((S)-4-((1-ethyl-3-(2-hydroxyethoxy)-1H-pyrazol-4-yl)sulfonyl)-6-((((1,1,1-trifluoro-2-methylpropan-2-yl)oxy)carbonyl)amino)-3,4-dihydro-2H-benzo[b][1,4]oxazin-2-yl)methyl)butanoic acid], the IC50 came to 49.5 nM.

On to `CC[C@@H](C[C@H]1CN(S(=O)(=O)c2cn(CC)nc2OCCO)c2cc(NC(=O)OC(C)(C)C(F)(F)F)ccc2O1)C(=O)O` (single isomer, unassigned) [Example 10N, (R or S)-2-(((S)-4-((1-ethyl-3-(2-hydroxyethoxy)-1H-pyrazol-4-yl)sulfonyl)-6-((((1,1,1-trifluoro-2-methylpropan-2-yl)oxy)carbonyl)amino)-3,4-dihydro-2H-benzo[b][1,4]oxazin-2-yl)methyl)butanoic acid], for which the IC50 is 67.2 nM.

Take `Cc1cc(S(=O)(=O)N2C[C@H](C[C@@H](C(=O)O)C3CC3)Oc3ccc(NC(=O)OC(C)(C)C(F)(F)F)cc32)ccc1F` (single isomer, unassigned) [Example 10T, (R or S)-2-cyclopropyl-3-((S)-4-((4-fluoro-3-methylphenyl)sulfonyl)-6-((((1,1,1-trifluoro-2-methylpropan-2-yl)oxy)carbonyl)amino)-3,4-dihydro-2H-benzo[b][1,4]oxazin-2-yl)propanoic acid]: the IC50 amounted to 16 nM.

Turning to `Cc1cc(S(=O)(=O)N2C[C@H](C[C@H](C(=O)O)C3CC3)Oc3ccc(NC(=O)OC(C)(C)C(F)(F)F)cc32)ccc1F` (single isomer, unassigned) [Example 10X, (R or S)-2-cyclopropyl-3-((S)-4-((4-fluoro-3-methylphenyl)sulfonyl)-6-((((1,1,1-trifluoro-2-methylpropan-2-yl)oxy)carbonyl)amino)-3,4-dihydro-2H-benzo[b][1,4]oxazin-2-yl)propanoic acid], the IC50 was 32.8 nM.

For the compound `COc1cc(S(=O)(=O)N2C[C@H](C[C@@](C)(O)C(=O)O)Oc3ccc(NC(=O)OC(C)(C)C(F)(F)F)cc32)ccc1F` (single isomer, unassigned) [Example 18A, (R or S)-3-((S)-4-((4-fluoro-3-methoxyphenyl)sulfonyl)-6-((((1,1,1-trifluoro-2-methylpropan-2-yl)oxy)carbonyl)amino)-3,4-dihydro-2H-benzo[b][1,4]oxazin-2-yl)-2-hydroxy-2-methylpropanoic acid], the IC50 worked out at 12.9 nM.

For `COc1cc(S(=O)(=O)N2C[C@H](C[C@](C)(O)C(=O)O)Oc3ccc(NC(=O)OC(C)(C)C(F)(F)F)cc32)ccc1F` (single isomer, unassigned) [Example 18C, (R or S)-3-((S)-4-((4-fluoro-3-methoxyphenyl)sulfonyl)-6-((((1,1,1-trifluoro-2-methylpropan-2-yl)oxy)carbonyl)amino)-3,4-dihydro-2H-benzo[b][1,4]oxazin-2-yl)-2-hydroxy-2-methylpropanoic acid], the half-maximal inhibitory concentration (IC50) came out at 25 nM.

`COc1cc(S(=O)(=O)N2C[C@H](CC(C)(CO)C(=O)O)Oc3ccc(NC(=O)OC(C)(C)C(F)(F)F)cc32)ccc1F` (single isomer, unassigned) [Example 18J, (S or R)-3-((S)-4-((4-fluoro-3-methoxyphenyl)sulfonyl)-6-((((1,1,1-trifluoro-2-methylpropan-2-yl)oxy)carbonyl)amino)-3,4-dihydro-2H-benzo[b][1,4]oxazin-2-yl)-2-(hydroxymethyl)-2-methylpropanoic acid]: the IC50 came to 9.13 nM.

In the case of `COc1cc(S(=O)(=O)N2C[C@H](CC(C)(CO)C(=O)O)Oc3ccc(NC(=O)OC(C)(C)C(F)(F)F)cc32)ccc1F` (single isomer, unassigned) [Example 18L, (S or R)-3-((S)-4-((4-fluoro-3-methoxyphenyl)sulfonyl)-6-((((1,1,1-trifluoro-2-methylpropan-2-yl)oxy)carbonyl)amino)-3,4-dihydro-2H-benzo[b][1,4]oxazin-2-yl)-2-(hydroxymethyl)-2-methylpropanoic acid], the concentration for half-maximal inhibition (IC50) turned out to be 10.4 nM.

In the case of `CC(C)(OC(=O)Nc1ccc2c(c1)N(S(=O)(=O)c1ccc(F)c(C(F)(F)F)c1)C[C@H]([C@@H](CC(=O)O)C1CC1)O2)C(F)(F)F` (single isomer, unassigned) [Example 21A, (S or R)-3-cyclopropyl-3-((S)-4-((4-fluoro-3-(trifluoromethyl)phenyl)sulfonyl)-6-((((1,1,1-trifluoro-2-methylpropan-2-yl)oxy)carbonyl)amino)-3,4-dihydro-2H-benzo[b][1,4]oxazin-2-yl)propanoic acid], the IC50 turned out to be 28 nM.

As for `CC(C)(OC(=O)Nc1ccc2c(c1)N(S(=O)(=O)c1ccc(F)c(C(F)(F)F)c1)C[C@H]([C@H](CC(=O)O)C1CC1)O2)C(F)(F)F` (single isomer, unassigned) [Example 21C, (S or R)-3-cyclopropyl-3-((S)-4-((4-fluoro-3-(trifluoromethyl)phenyl)sulfonyl)-6-((((1,1,1-trifluoro-2-methylpropan-2-yl)oxy)carbonyl)amino)-3,4-dihydro-2H-benzo[b][1,4]oxazin-2-yl)propanoic acid], the IC50 was found to be 30.4 nM.

For `Cc1ccc(S(=O)(=O)N2C[C@H]([C@H]3C[C@H]3C(=O)O)Oc3ccc(NC(=O)OC(C)(C)C(F)(F)F)cc32)cc1` (single isomer, unassigned) [Example 22E, (1S,2S or 1R,2R or 1S,2R or 1R,2S)-2-((S)-4-tosyl-6-((((1,1,1-trifluoro-2-methylpropan-2-yl)oxy)carbonyl)amino)-3,4-dihydro-2H-benzo[b][1,4]oxazin-2-yl)cyclopropanecarboxylic acid], the half-inhibitory concentration (IC50) was found to be 47.1 nM.

In the case of `Cc1ccc(S(=O)(=O)N2C[C@H]([C@@H]3C[C@@H]3C(=O)O)Oc3ccc(NC(=O)OC(C)(C)C(F)(F)F)cc32)cc1` (single isomer, unassigned) [Example 22F, (1S,2S or 1R,2R or 1S,2R or 1R,2S)-2-((S)-4-tosyl-6-((((1,1,1-trifluoro-2-methylpropan-2-yl)oxy)carbonyl)amino)-3,4-dihydro-2H-benzo[b][1,4]oxazin-2-yl)cylcopropanecarboxylic acid], the IC50 is 75.7 nM.

In general, IC50 refers to the midpoint of a concentration-inhibition curve.
